“Also recorded” adds a separate entry of the source.
Key:
[1] = tested on: patients harboring the B-Raf^V600E mutation; details: cited from earlier work
[2] = tested on: 1205Lu (B-Raf^V600E bearing) melanoma cells; test: Melanoma proliferation assay; assay type: cell-based, human; details: dose-dependent, 72 h, Figure 3
ERK1 = ERK1 (Homo sapiens, UniProt P27361); test: Kinase profiling, ERK1; assay type: biochemical; details: read-out: Inhibition rate (%) ERK1
B-Raf^WT = B-Raf^WT (Homo sapiens, UniProt P15056); test: In vitro B-Raf kinase assay; assay type: biochemical
EGFR = EGFR (Homo sapiens, UniProt P00533); test: Kinase profiling, EGFR; assay type: biochemical; details: read-out: Inhibition rate (%) EGFR
AKT1 = AKT1 (Homo sapiens, UniProt P31749); test: Kinase profiling, AKT1; assay type: biochemical; details: read-out: Inhibition rate (%) AKT1
Chain of AKT1 (P31749 whole entry, species assumed): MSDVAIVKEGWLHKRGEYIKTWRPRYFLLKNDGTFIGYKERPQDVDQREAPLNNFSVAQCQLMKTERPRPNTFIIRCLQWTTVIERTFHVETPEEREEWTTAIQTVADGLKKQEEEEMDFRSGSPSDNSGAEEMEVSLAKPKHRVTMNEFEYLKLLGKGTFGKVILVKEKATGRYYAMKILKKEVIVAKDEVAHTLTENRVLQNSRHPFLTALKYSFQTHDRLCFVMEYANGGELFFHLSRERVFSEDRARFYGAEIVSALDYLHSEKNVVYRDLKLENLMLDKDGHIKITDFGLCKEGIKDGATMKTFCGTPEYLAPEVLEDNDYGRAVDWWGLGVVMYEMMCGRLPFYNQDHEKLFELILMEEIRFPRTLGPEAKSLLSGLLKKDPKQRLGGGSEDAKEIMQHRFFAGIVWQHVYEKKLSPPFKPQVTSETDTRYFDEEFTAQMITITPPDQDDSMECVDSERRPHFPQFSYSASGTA

[3] = tested on: WM983B (B-Raf^V600E bearing) melanoma cells; test: Melanoma proliferation assay; assay type: cell-based, human; details: dose-dependent, 72 h, Figure 3
SRC = SRC (Homo sapiens, UniProt P12931); test: Kinase profiling, SRC; assay type: biochemical; details: read-out: Inhibition rate (%) SRC
Chain of SRC (P12931 whole entry, species assumed): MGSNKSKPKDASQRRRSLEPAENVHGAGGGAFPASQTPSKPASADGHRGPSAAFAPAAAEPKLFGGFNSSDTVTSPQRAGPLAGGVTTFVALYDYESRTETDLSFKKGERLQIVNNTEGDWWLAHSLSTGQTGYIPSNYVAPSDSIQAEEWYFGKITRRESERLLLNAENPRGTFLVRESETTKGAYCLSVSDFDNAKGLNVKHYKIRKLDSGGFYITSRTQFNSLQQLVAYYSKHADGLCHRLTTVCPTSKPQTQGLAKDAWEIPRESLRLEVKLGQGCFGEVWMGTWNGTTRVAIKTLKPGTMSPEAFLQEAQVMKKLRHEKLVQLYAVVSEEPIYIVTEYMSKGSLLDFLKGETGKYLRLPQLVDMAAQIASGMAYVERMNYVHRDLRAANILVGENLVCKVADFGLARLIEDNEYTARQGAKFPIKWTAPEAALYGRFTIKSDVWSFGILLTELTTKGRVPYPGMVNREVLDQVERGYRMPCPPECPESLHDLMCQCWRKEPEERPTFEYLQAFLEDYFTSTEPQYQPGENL

PDGFRα = PDGFRα (Homo sapiens, UniProt P16234); test: Kinase profiling, PDGFRα; assay type: biochemical; details: read-out: Inhibition rate (%) PDGFRα
Chain of PDGFRα (P16234 24-1089, species assumed): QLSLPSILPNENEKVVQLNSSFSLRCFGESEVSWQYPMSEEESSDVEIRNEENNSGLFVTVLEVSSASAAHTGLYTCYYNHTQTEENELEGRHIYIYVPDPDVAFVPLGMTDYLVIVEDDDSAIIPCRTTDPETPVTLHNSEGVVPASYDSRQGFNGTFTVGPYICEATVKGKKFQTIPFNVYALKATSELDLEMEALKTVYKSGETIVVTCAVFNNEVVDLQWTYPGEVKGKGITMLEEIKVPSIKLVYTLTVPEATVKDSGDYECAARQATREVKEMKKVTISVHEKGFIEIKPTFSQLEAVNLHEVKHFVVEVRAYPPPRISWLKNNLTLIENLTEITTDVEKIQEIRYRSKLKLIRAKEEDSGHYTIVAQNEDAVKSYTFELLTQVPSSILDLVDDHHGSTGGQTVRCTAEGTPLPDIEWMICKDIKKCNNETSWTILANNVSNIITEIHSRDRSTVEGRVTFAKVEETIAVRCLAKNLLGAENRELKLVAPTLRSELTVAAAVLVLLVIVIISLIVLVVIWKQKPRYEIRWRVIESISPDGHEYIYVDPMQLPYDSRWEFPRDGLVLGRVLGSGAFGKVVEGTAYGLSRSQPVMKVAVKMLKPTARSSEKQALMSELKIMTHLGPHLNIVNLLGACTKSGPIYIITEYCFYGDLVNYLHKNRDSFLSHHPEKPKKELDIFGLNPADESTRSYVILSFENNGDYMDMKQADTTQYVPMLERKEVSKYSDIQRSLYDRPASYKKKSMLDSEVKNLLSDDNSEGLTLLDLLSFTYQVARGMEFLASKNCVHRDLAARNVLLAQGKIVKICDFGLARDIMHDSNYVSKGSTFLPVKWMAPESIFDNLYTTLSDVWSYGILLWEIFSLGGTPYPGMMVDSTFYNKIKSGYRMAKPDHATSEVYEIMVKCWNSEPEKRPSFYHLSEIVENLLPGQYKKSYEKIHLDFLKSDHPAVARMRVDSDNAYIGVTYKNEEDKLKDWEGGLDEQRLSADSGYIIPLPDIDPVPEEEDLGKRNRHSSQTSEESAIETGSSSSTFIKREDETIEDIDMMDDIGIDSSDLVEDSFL

KDR = KDR (Homo sapiens, UniProt P35968); test: Kinase profiling, KDR; assay type: biochemical; details: read-out: Inhibition rate (%) KDR
Chain of KDR (P35968 20-1356, species assumed): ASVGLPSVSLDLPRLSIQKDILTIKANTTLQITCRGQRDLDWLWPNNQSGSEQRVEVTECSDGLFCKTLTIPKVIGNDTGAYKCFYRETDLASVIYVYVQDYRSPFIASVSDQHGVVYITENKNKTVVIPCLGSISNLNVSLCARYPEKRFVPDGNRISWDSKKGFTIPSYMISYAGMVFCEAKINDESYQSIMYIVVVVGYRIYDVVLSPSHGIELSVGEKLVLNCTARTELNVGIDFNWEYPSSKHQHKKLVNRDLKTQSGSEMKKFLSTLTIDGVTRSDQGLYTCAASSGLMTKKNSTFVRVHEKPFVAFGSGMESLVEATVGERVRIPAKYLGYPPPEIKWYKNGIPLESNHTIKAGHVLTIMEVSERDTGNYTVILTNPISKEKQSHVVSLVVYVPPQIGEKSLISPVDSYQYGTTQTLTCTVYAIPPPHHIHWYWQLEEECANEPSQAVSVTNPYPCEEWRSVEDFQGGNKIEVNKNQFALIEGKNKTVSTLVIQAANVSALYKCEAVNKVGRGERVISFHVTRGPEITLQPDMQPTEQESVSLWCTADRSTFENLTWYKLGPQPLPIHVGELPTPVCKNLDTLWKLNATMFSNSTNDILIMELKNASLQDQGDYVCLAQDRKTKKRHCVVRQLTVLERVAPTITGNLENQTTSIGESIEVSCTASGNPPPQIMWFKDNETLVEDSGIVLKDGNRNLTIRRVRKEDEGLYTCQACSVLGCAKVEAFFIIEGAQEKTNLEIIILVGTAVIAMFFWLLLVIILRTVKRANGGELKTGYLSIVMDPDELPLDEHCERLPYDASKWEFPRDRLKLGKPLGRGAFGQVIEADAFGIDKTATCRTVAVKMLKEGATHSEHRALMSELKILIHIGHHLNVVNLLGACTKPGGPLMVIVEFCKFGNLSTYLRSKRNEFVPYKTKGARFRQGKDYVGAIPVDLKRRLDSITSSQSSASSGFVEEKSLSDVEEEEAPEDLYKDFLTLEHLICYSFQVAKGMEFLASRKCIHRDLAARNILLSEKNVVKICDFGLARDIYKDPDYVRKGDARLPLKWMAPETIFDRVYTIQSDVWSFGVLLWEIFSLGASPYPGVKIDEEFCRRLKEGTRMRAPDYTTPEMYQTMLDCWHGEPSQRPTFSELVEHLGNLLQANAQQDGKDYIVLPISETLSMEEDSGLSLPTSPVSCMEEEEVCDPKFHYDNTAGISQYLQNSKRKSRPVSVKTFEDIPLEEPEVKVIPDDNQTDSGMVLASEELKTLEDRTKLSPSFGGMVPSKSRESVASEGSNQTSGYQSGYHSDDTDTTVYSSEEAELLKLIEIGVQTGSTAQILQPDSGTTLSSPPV

LCK = LCK (Homo sapiens, UniProt P06239); test: Kinase profiling, LCK; assay type: biochemical; details: read-out: Inhibition rate (%) LCK
FGFR1 = FGFR1 (Homo sapiens, UniProt P11362); test: Kinase profiling, FGFR1; assay type: biochemical; details: for inhibition at 1 µM / inhibition at 5 µM: read-out: Inhibition rate (%) FGFR1
IGF1R = IGF1R (Homo sapiens, UniProt P08069); test: Kinase profiling, IGF1R; assay type: biochemical; details: read-out: Inhibition rate (%) IGF1R
[4] = tested on: WM3918 melanoma cells not expressing mutant B-Raf; test: Melanoma proliferation assay; assay type: cell-based, human; details: dose-dependent, 72 h, Figure 3
CDK2 = CDK2 (Homo sapiens, UniProt P24941); test: Kinase profiling, CDK2; assay type: biochemical; details: read-out: Inhibition rate (%) CDK2
IKKβ = molecular target: T1, IKKβ (Homo sapiens, UniProt O14920); test: Kinase profiling, IKKβ; assay type: biochemical; details: for inhibition at 1 µM / inhibition at 5 µM: read-out: Inhibition rate (%) IKKβ
T1 sequence (O14920 1-756): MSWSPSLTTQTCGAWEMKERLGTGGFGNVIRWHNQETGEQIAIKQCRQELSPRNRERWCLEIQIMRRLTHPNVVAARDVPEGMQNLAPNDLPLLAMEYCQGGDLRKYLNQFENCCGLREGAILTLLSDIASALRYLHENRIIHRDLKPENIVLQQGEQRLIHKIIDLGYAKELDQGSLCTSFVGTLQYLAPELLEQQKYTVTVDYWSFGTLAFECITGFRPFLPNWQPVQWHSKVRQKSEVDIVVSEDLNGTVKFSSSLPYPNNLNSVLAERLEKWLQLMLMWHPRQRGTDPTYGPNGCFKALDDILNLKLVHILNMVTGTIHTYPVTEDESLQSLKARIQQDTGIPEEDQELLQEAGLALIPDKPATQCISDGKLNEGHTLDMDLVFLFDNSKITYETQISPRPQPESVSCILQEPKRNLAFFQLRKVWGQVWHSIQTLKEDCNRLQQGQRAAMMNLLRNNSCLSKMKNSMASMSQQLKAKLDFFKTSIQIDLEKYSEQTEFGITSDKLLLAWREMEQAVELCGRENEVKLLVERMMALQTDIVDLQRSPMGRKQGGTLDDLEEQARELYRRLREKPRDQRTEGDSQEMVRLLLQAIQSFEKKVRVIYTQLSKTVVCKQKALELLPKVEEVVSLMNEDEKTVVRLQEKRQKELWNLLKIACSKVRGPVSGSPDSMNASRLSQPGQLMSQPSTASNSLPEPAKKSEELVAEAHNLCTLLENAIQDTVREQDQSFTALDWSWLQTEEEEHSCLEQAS

[5] = tested on: normal human primary fibroblasts (FF2508); test: Proliferation assay; assay type: cell-based; details: dose-dependent, 72 h, Figure 3
PKCα = PKCα (Homo sapiens, UniProt P17252); test: Kinase profiling, PKCα; assay type: biochemical; details: read-out: Inhibition rate (%) PKCα
cKIT = cKIT (Homo sapiens, UniProt P10721); test: Kinase profiling, cKIT; assay type: biochemical; details: read-out: Inhibition rate (%) cKIT
Chain of cKIT (P10721 26-976): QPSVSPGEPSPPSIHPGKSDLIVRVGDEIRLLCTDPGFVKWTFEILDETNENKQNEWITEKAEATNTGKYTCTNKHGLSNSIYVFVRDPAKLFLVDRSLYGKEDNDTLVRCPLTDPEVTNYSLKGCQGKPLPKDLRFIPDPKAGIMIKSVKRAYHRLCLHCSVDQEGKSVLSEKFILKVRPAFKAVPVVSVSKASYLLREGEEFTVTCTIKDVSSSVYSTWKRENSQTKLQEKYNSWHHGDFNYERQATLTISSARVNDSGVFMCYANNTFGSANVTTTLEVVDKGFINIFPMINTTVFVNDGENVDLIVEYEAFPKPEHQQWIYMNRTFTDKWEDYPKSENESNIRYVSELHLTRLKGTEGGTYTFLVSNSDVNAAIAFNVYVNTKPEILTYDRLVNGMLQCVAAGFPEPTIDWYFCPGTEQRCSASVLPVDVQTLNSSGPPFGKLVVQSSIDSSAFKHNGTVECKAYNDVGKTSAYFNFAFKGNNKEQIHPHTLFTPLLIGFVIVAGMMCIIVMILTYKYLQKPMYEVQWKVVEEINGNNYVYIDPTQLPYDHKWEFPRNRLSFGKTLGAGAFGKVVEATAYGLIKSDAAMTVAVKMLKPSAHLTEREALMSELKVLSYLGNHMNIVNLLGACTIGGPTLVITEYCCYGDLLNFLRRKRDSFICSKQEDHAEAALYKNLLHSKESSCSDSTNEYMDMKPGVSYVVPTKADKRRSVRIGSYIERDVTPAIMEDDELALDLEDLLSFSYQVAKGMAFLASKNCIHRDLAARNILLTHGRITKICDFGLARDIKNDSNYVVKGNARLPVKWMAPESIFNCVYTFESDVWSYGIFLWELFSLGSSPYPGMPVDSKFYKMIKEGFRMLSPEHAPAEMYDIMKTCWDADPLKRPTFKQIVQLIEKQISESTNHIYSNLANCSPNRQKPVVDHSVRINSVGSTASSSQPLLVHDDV

P38α = P38α (Homo sapiens, UniProt Q16539); test: Kinase profiling, P38α; assay type: biochemical; details: read-out: Inhibition rate (%) P38α
[6] = tested on: A375 (B-Raf^V600E) malignant melanoma cells; test: Anti-proliferation activity, A375 melanoma cells; assay type: cell-based, human; details: for inhibition at 10 µM: Homo sapiens, A-375, read-out: Tumor growth inhibition rate A375(B-Raf^V600E); for Tumor growth inhibition rate A375(B-Raf^V600E): [I]=10μM
MET = MET (Homo sapiens, UniProt P08581); test: Kinase profiling, MET; assay type: biochemical; details: read-out: Inhibition rate (%) MET
[7] = tested on: SW620 (B-Raf^WT) human colonic carcinoma cells; test: Anti-proliferation activity, SW620 cells; assay type: cell-based; details: SW-620, read-out: Tumor growth inhibition rate SW620 (B-Raf)
B-Raf^V600E = B-Raf^V600E (Homo sapiens, UniProt P15056, V600E); test: In vitro B-Raf kinase assay; assay type: biochemical
Chain of B-Raf^V600E (P15056 433-726 V600E): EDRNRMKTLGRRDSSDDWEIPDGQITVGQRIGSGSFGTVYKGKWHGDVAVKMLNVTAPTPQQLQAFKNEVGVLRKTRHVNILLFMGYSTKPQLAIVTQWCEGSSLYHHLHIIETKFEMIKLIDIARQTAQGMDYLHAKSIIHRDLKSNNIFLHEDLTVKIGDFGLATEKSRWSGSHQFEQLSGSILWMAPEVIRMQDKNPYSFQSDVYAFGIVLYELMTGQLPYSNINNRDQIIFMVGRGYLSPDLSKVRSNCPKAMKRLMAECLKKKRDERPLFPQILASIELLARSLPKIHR

[8] = read-out: Inhibition rate (%) B-Raf^V600E

Chain of ERK1 (P27361 whole entry, species assumed): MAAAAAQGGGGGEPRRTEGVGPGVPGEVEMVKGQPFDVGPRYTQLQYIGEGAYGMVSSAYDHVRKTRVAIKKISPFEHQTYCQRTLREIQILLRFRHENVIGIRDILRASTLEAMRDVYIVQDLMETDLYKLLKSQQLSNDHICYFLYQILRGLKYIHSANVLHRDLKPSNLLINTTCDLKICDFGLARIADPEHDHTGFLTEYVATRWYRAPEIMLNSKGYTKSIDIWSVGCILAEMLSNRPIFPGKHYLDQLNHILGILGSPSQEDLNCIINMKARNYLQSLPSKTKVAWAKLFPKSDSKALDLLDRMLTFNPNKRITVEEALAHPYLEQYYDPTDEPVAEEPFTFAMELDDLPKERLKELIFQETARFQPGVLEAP

Compound | proliferation of 1205Lu cells [2] | inhibition at 1 µM (ERK1) | inhibition at 5 µM (ERK1) | inhibition at 5 µM (EGFR) | inhibition at 1 µM (AKT1) | inhibition at 5 µM (AKT1) | proliferation of WM983B cells [3] | inhibition at 1 µM (SRC) | inhibition at 5 µM (SRC) | inhibition at 1 µM (PDGFRα) | inhibition at 5 µM (PDGFRα) | inhibition at 5 µM (KDR) | inhibition at 5 µM (LCK) | inhibition at 1 µM (FGFR1) | inhibition at 5 µM (FGFR1) | inhibition at 1 µM (IGF1R) | inhibition at 5 µM (IGF1R) | proliferation of WM3918 cells [4] | inhibition at 1 µM (CDK2) | inhibition at 10 µM [6] | also measured
CCCS(=O)(=O)Nc1ccc(F)c(C(=O)c2c[nH]c3ncc(-c4ccc(Cl)cc4)cc23)c1F [Vemurafenib] | – | – | – | – | – | – | – | – | – | – | – | – | – | – | – | – | – | – | – | – | side effects in treated patients ([1]; Vemurafenib treated patients): induction of keratoacanthoma was frequently observed; tumor regression in patients ([1]; patients harboring the B-Raf^V600E mutation): complete or partial tumor regression in the majority of patients
O=C1NC(=S)NC(=O)C1=Cc1ccc(-c2ccc(Br)cc2)o1 [Compound 22f, 5-[5-(4-bromo-phenyl)-furan-2ylmethylene]-2-thioxo-dihydro-pyrimidine-4,6-dione] | significantly inhibited | 14.5% | 30.7% | 46.1% | 10.8% | 20.3% | significantly inhibited | 8.6% | 28.3% | 7.2% | 20.4% | 6.1% | 10.5% | 15% | 72.2% | 9.5% | 15.6% | significantly more resistant | 11.6% | 65.3% | IC50 (B-Raf^WT): 600 nM; inhibition at 1 µM (EGFR): 12.6%; inhibition at 1 µM (KDR): 3.9%; inhibition at 1 µM (LCK): 10.5%; Inhibition rate (%) FGFR1 (FGFR1; 5μM, ATP at Km): significantly inhibited; inhibition at 5 µM (CDK2): 39.7%; Inhibition rate (%) IKKβ (IKKβ; 5μM, ATP at Km): significantly inhibited; inhibition at 1 µM (IKKβ): 27.8%; inhibition at 5 µM (IKKβ): 52.1%; proliferation of FF2508 fibroblasts [5]: significantly more resistant; inhibition at 1 µM (PKCα): 16.2%; inhibition at 5 µM (PKCα): 26.4%; inhibition at 1 µM (cKIT): 18.6%; inhibition at 5 µM (cKIT): 40.3%; inhibition at 5 µM (P38α): 7.7%; Tumor growth inhibition rate A375(B-Raf^V600E) [6]: potent growth inhibition activity; inhibition at 1 µM (MET): 34.2%; inhibition at 5 µM (MET): 42.2%
Cc1ccc(-c2ccc(C=C3C(=O)NC(=S)NC3=O)o2)cc1 [Compound 22g, 5-[5-(4-methyl-phenyl)-furan-2ylmethylene]-2-thioxo-dihydro-pyrimidine-4,6-dione] | – | – | – | – | – | – | – | – | – | – | – | – | – | – | – | – | – | – | – | 84% | inhibition at 2 µM (B-Raf^WT; read-out: Inhibition rate (%) B-Raf): 17%; inhibition at 10 µM [7]: 3.6%; inhibition at 0.5 µM (B-Raf^V600E; [8]): 50%; inhibition at 2 µM (B-Raf^V600E; [8]): 59%; Tumor growth inhibition rate A375(B-Raf^V600E) ([6]; 10 µM): potent growth inhibition activity; also recorded: virtually complete growth inhibition
O=C1NC(=S)NC(=O)C1=Cc1ccc(-c2ccc3c(c2)OCO3)o1 [Compound 22q, 5-[5-(3,4-methylenedioxy)-furan-2ylmethylene]-2-thioxo-dihydro-pyrimidine-4,6-dione] | significantly inhibited | 10% | 13.7% | 19.4% | 4.6% | 14.5% | significantly inhibited | 6.2% | 15.2% | 6% | 7.7% | 1.2% | 0.8% | 4.9% | 18.6% | 5.6% | 6.8% | significantly more resistant | 3.3% | 77.7% | inhibition at 10 µM [7]: 47.7%; selectivity for B-Raf^V600E over other tested protein kinases (B-Raf^V600E; panel of 16 protein kinases): more than 10 fold; inhibition at 5 µM (CDK2): 12.6%; inhibition at 1 µM (IKKβ): 15%; inhibition at 5 µM (IKKβ): 35.7%; proliferation of FF2508 fibroblasts [5]: significantly more resistant; inhibition at 5 µM (PKCα): 5.2%; inhibition at 1 µM (cKIT): 18.3%; inhibition at 5 µM (cKIT): 20%; Tumor growth inhibition rate A375(B-Raf^V600E) [6]: potent growth inhibition activity; inhibition at 1 µM (MET): 18.6%; inhibition at 5 µM (MET): 19.4%

Reference: paper PMC3427755 (Organic & biomolecular chemistry, 2012)
